Assay results as given in publication PMC9851200, “Multiparameter phenotypic screening for endogenous TFEB and TFE3 translocation identifies novel chemical series modulating lysosome function” (Autophagy, 2022).

Legend:
Assay type in all cases: binding
[1] = target: T1, kinases (KINOMEscan panel) (Homo sapiens, UniProt P25098); details: NEW KINOMEscan
T1 sequence (P25098 1-689): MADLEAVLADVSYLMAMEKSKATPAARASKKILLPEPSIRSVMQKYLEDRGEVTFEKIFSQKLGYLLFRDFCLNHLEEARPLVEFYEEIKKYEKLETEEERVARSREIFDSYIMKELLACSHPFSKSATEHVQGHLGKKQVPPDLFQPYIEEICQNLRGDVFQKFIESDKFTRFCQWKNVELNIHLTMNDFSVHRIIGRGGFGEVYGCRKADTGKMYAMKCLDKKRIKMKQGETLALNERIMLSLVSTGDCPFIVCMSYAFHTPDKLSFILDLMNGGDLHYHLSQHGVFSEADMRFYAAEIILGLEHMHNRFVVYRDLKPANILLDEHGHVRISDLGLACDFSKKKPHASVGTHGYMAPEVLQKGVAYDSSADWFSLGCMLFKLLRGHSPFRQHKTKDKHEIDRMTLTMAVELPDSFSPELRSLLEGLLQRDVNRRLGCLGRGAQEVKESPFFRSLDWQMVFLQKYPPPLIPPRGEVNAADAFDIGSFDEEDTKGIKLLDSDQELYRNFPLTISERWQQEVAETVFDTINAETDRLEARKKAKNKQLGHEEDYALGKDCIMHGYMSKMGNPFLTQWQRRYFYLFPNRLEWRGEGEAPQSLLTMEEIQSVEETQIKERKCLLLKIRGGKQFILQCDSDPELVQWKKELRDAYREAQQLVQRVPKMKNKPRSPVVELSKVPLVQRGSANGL

[2] = target: T2, kinases (KINOMEscan panel) (Homo sapiens, UniProt Q16566); details: CAMK4; NEW KINOMEscan
T2 sequence (Q16566 1-473): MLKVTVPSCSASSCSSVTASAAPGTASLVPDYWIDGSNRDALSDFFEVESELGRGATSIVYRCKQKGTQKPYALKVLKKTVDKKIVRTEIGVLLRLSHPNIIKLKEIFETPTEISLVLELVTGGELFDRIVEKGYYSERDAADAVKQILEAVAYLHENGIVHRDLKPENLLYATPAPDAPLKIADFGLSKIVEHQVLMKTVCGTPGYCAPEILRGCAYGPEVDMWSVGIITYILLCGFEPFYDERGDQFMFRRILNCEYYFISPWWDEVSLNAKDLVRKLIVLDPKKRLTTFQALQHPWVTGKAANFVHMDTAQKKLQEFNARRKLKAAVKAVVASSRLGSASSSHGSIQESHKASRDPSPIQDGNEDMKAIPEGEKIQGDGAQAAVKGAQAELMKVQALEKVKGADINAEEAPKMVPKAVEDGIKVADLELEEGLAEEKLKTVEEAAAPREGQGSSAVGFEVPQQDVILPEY

[3] = target: kinases (KINOMEscan panel) (Homo sapiens, UniProt P00519); details: NEW KINOMEscan
kinases (KINOMEscan panel) (Homo sapiens, UniProt P00519), sequence (P00519 whole entry): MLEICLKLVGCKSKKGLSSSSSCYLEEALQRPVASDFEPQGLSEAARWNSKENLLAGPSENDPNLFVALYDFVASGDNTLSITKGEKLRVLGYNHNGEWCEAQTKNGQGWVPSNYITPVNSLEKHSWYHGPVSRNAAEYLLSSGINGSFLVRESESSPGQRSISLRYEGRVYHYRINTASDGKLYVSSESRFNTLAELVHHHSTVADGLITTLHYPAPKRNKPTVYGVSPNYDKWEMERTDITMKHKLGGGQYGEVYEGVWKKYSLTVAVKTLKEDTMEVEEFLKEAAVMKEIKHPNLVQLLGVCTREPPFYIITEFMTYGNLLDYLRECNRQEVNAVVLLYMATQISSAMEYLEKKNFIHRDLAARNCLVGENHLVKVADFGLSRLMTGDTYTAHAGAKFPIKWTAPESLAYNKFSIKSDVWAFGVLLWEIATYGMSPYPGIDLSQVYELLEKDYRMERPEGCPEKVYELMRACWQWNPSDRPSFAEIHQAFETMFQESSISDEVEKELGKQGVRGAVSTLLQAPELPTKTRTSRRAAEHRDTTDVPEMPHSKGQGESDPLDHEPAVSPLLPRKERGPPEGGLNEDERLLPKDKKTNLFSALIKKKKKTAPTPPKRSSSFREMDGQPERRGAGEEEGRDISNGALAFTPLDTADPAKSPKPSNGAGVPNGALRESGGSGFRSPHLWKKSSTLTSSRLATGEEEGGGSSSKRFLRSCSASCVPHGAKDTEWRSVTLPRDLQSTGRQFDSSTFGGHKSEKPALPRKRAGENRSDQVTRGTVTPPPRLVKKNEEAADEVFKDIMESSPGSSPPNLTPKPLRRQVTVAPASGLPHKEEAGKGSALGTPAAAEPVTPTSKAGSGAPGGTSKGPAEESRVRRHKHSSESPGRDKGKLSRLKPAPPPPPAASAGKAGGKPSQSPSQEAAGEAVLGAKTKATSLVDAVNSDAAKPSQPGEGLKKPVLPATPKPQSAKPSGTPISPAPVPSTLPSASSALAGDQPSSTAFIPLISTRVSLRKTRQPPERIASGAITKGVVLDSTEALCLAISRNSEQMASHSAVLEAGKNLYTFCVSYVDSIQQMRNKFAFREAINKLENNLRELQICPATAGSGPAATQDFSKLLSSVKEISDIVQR

[4] = target: T3, kinases (KINOMEscan panel) (Homo sapiens, UniProt P29322); details: kinase EPHA8; NEW KINOMEscan
T3 sequence (P29322 28-1005): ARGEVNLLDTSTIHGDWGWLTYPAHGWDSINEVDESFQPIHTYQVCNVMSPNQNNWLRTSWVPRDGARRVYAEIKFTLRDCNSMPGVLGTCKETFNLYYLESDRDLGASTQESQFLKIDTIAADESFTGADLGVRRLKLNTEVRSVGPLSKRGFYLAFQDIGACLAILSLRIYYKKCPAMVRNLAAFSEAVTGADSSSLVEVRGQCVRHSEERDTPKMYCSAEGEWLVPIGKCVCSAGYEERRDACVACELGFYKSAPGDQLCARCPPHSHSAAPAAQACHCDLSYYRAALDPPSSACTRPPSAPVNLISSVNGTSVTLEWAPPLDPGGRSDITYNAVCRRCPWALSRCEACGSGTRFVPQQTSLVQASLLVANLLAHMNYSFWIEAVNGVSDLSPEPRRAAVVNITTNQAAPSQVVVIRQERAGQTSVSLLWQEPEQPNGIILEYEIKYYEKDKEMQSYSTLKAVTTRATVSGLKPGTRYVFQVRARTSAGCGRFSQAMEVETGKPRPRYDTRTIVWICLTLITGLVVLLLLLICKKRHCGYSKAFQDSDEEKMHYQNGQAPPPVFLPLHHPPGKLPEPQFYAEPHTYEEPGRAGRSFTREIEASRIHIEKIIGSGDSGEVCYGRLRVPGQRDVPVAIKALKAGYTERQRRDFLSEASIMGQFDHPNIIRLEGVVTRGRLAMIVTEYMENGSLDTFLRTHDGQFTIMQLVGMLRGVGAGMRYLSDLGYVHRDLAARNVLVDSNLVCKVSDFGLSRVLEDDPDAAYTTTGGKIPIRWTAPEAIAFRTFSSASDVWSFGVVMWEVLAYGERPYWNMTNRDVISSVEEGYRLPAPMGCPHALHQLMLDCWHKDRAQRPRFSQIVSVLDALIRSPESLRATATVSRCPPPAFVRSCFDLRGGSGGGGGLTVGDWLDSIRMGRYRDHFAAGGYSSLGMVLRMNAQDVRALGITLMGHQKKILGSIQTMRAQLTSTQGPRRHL

[5] = target: T4, kinases (KINOMEscan panel) (Homo sapiens, UniProt Q8TBX8); details: PIP4K2C; NEW KINOMEscan
T4 sequence (Q8TBX8 1-421): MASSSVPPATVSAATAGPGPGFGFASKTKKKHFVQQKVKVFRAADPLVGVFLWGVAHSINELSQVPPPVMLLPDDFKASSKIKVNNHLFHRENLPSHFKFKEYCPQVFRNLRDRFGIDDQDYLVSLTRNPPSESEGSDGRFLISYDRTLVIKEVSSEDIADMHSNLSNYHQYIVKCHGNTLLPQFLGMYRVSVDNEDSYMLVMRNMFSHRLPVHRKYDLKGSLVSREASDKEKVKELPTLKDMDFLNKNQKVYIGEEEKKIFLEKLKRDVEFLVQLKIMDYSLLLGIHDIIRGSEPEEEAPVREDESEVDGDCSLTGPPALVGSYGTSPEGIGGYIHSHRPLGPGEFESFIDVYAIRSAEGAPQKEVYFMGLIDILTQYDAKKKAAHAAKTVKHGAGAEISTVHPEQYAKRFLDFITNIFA

Row | SMILES | KINOMEscan GRK2 [1] | KINOMEscan CAMK4 [2] | KINOMEscan ABL1-nonphosphorylated [3] | KINOMEscan ABL1-phosphorylated [3] | KINOMEscan EPHA8 [4] | KINOMEscan PIP4K2C [5]
1 | Cc1cccc(-c2nc(Nc3ccc4nn(C)cc4c3)c3ccccc3n2)n1 [NK167] | 0 | 2 | 0 | 41 | 0 | 0
2 | Cc1cccc(-c2nc(N(C)c3ccc4ncsc4c3)c3ccccc3n2)n1 [NK-161] | 9 | 7 | 0 | 29 | 0 | 0
